This note sets out measurements from paper PMC9555310, “Novel inhibitors and activity-based probes targeting serine proteases” (Frontiers in Chemistry, 2022).

“And” between values parts separate entries of the source, which are not always exact repeats. Equal values may be shown once.

The experiment addresses T1, chymotrypsin (Bos taurus, UniProt P00766).
T1 construct: purchased Sigma-Aldrich (supplement); Calbiochem; host or cells: bovine pancreas
In words: Irreversible inhibition kinetics of chymotrypsin (fluorogenic substrate progress curves). The class given is biochemical, bovine. The method, then: A range of inhibitor concentrations were prepared from a 10 mM stock solution of the test compounds (NAP533, NAP559, NAP800, NAP830, NAP849, and NAP962) in N, N-dimethylformamide (DMF). Recombinant protease activities were assayed using the cognate fluorogenic substrates as follows: trypsin (Z-Gly-Gly-Arg-NHMec), thrombin (Boc-Val-Pro-Arg-NHMec), plasmin (Boc-Val-Leu-Lys-NHMec), human neutrophil elastase (MeO-Succinyl-Ala-Ala-Pro-Val-NHMec), and chymotrypsin (Succinyl-Ala-Ala-Pro-Phe-NHMec). Each substrate was used at a final concentration of 50 μM, in the appropriate buffer for each protease. All inhibition assays were performed in microtiter plates maintained at 37°C in a final volume of 100 μL. The reaction was initiated by the addition of each protease (approx. 0.01 μg/well) and the rate of substrate hydrolysis was recorded continuously at 37°C, over a 60 min period, by measuring the rate of increase in fluorescence (at λex 360 nm, λem 480 nm) using a FLUOstar Optima microplate reader (BMG Labtech).
The resultant inhibition progress curves obtained for each inhibitor were analyzed by the kinetic models developed by [Tian and Tsou (1982)] and [Walker and Elmore (1984)], for irreversible inhibitors, with curve fitting being achieved using GraFit (Erithacus Software), as described previously ([Ferguson et al., 2016]).
FIGURE 4 Progress curves for (A), chymotrypsin-catalysed hydrolysis of Succinyl-Ala-Ala-Pro-Phe-NHMec, in the presence of varying concentrations of NAP849. (B), NE-catalysed hydrolysis of MeO-succinyl-Ala-Ala-Pro-Val-NHMec, in the presence of varying concentrations of NAP800. (C) Trypsin-catalysed of Z-Gly-Gly-Arg-NHMec, in the presence of NAP830. (D) Plasmin-catalysed hydrolysis of Boc-Val-Leu-Lys-NHMec, in the presence of varying concentrations of NAP962. Assays were carried out in PBS, pH 7.4, at 37°C, in the presence of a range of inhibitor concentrations (0.25–50 μM) and a fixed concentration (50 μM) of the appropriate substrate for each protease.
The “product progress” curves for substrate hydrolysis in the presence of an inhibitor (Figure 4) are indicative of the action of irreversible inhibitors operating through the kinetic scheme illustrated in Figure 6. In this scheme, the formation of the reversible enzyme–inhibitor complex (EI) is zcharacterized by the inhibitor constant K i. This is converted into the covalent/irreversible complex (E-I) characterized by a first-order rate constant k 3. The overall second-order rate constant for the inactivation of E by I is given by the ratio k 3/K i ([Walker and Elmore, 1984]; [Tsou, 1988]). […]
Protease inactivation by each of the compounds under study was evaluated using a fluorogenic enzyme assays. […]

In the case of `O=C(CCCCC1SCC2NC(=O)NC21)NCCCOCCOCCOCCCNC(=O)CNC(=O)CNC(=O)CN(Cc1ccccc1)C(=O)ON1C(=O)CCC1=O` (stereo not drawn) [NAP849, Succinimidoyl-CO-NPhe-Gly-Gly-PEG-Biotin], the Ki (Succinyl-Ala-Ala-Pro-Phe-NHMec 50 μM, PBS pH 7.4, 37°C, mean ± SD (n=3)) worked out at 890 nM. Further, where the note is “first-order rate constant, PBS pH 7.4, 37°C, mean ± SD (n=3)”, the “k 3” value was 0.85 (± 0.29) min^−1. Also, the “second-order rate constant relative to the analogous phenylalanine diphenyl phosphonate QUBCL1” value (fold greater than QUBCL1) is “approximately ten-fold”. Under “second-order rate constant of inactivation, PBS pH 7.4, 37°C, mean ± SD (n=3)”, the “k 3 / K i” value is 1.28 × 10^6 M^−1 min^−1 and 1.28 (± 0.44) × 10^6 M^−1 min^−1.
